Reference: the supplement of paper PMC11451515

Tested on: SEM cells
Assay: cell viability relative to DMSO control; higher = less cytotoxic
Conditions: 48 h
How it was run: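 Viability values are per-plate percentages of DMSO wells, with background from cell-free wells. Library compounds in DMSO were pin-dosed, in an 11-point threefold series from 47 μM to 0.79 nM, onto NOMO1 or SEM (500 cells/well) or P12-Ichikawa (1000 cells/well) leukemia cells in 1536-well plates (5 μl). Those cells had been adapted for at least four passages in each medium, and CellTiter-Glo One luminescence was read after 48 h at 37°C.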

[1] = HPLM + 10% dialyzed FBS, 0.000781 µM
[2] = HPLM + 10% dialyzed FBS, 0.00234 µM
[3] = HPLM + 10% dialyzed FBS, 0.00702 µM
[4] = HPLM + 10% dialyzed FBS, 0.0211 µM
[5] = HPLM + 10% dialyzed FBS, 0.0632 µM
[6] = HPLM + 10% dialyzed FBS, 0.19 µM
[7] = HPLM + 10% dialyzed FBS, 0.569 µM
[8] = HPLM + 10% dialyzed FBS, 1.71 µM
[9] = HPLM + 10% dialyzed FBS, 5.12 µM
[10] = HPLM + 10% dialyzed FBS, 15.4 µM
[11] = HPLM + 10% dialyzed FBS, 46.1 µM
[12] = RPMI 5 mM glucose + 10% FBS, 0.000781 µM
[13] = RPMI 5 mM glucose + 10% FBS, 0.00234 µM
[14] = RPMI 5 mM glucose + 10% FBS, 0.00702 µM
[15] = RPMI 5 mM glucose + 10% FBS, 0.0211 µM
[16] = RPMI 5 mM glucose + 10% FBS, 0.0632 µM
[17] = RPMI 5 mM glucose + 10% FBS, 0.19 µM
[18] = RPMI 5 mM glucose + 10% FBS, 0.569 µM
[19] = RPMI 5 mM glucose + 10% FBS, 1.71 µM
[20] = RPMI 5 mM glucose + 10% FBS, 5.12 µM
[21] = RPMI 5 mM glucose + 10% FBS, 15.4 µM
[22] = RPMI 5 mM glucose + 10% FBS, 46.1 µM
[23] = RPMI 5 mM glucose + 10% dialyzed FBS, 0.000781 µM
[24] = RPMI 5 mM glucose + 10% dialyzed FBS, 0.00234 µM
[25] = RPMI 5 mM glucose + 10% dialyzed FBS, 0.00702 µM
[26] = RPMI 5 mM glucose + 10% dialyzed FBS, 0.0211 µM
[27] = RPMI 5 mM glucose + 10% dialyzed FBS, 0.0632 µM
[28] = RPMI 5 mM glucose + 10% dialyzed FBS, 0.19 µM
[29] = RPMI 5 mM glucose + 10% dialyzed FBS, 0.569 µM
[30] = RPMI 5 mM glucose + 10% dialyzed FBS, 1.71 µM
[31] = RPMI 5 mM glucose + 10% dialyzed FBS, 5.12 µM
[32] = RPMI 5 mM glucose + 10% dialyzed FBS, 15.4 µM
[33] = RPMI 5 mM glucose + 10% dialyzed FBS, 46.1 µM

SMILES	cell viability [1] [%]	cell viability [2] [%]	cell viability [3] [%]	cell viability [4] [%]	cell viability [5] [%]	cell viability [6] [%]	cell viability [7] [%]	cell viability [8] [%]	cell viability [9] [%]	cell viability [10] [%]	cell viability [11] [%]	cell viability [12] [%]	cell viability [13] [%]	cell viability [14] [%]	cell viability [15] [%]	cell viability [16] [%]	cell viability [17] [%]	cell viability [18] [%]	cell viability [19] [%]	cell viability [20] [%]	cell viability [21] [%]	cell viability [22] [%]	cell viability [23] [%]	cell viability [24] [%]	cell viability [25] [%]	cell viability [26] [%]	cell viability [27] [%]	cell viability [28] [%]	cell viability [29] [%]	cell viability [30] [%]	cell viability [31] [%]	cell viability [32] [%]	cell viability [33] [%]
CC(C)(C)C(=O)OCOP(=O)(COCCn1cnc2c(N)ncnc21)OCOC(=O)C(C)(C)C	84.1	112	104	101	71.9	51	68.1	38.1	25.6	14.1	7.08	108	101	108	88	61.7	42.7	51.4	26.5	13	7.59	2.97	86.6	95.4	95.3	85.1	48.5	39.8	42.2	23.2	13	10.9	3.51
CC(=O)C\1=C(/C)C2=CN=C(NC3=CC=C(C=N3)N4CCNCC4)N=C2N(C5CCCC5)C1=O	124	125	107	125	119	109	80.6	68.1	59.6	60.8	27.5	114	119	133	113	126	126	100	80.5	61.6	59.9	22.2	125	107	130	122	127	99.2	86.8	74.4	68.5	63.6	29.2
Oc1ccc(/C=C/c2cc(O)cc(O)c2)cc1	99.5	113	106	104	115	110	112	121	118	97.6	10.4	105	107	85.6	100	103	108	111	94.9	101	22.7	5.07	114	115	97.2	98.4	100	92.8	103	103	111	73.7	7.98
COc1cc2c(Oc3ccc(NC(=O)C4(C(=O)Nc5ccc(F)cc5)CC4)cc3F)ccnc2cc1OCCCN1CCOCC1	45.9	38.6	35.5	35.9	33.8	31.9	32.3	16.1	19.9	17.1	3.11	59.2	45.2	42.3	43.6	37.4	33.6	42.5	13.5	10.9	7.49	3.41	41.9	28.5	34.8	28.2	23.9	25.3	25.7	9.12	11.7	8.88	2.51
COC[C@@H](NC(C)=O)C(=O)NCc1ccccc1	117	116	118	118	112	119	124	105	100	120	111	115	111	118	123	99.7	115	99.9	121	90.3	103	116	103	101	102	96.7	99.4	131	106	105	90	86.7	96.9
Oc1ccc(C2CCN(c3ccnc4ccccc34)CC2)cc1O	55.8	98.9	88.8	93.5	118	94.1	95.4	89.5	76.6	56.3	30.7	56.9	98	93.6	94.6	106	116	96.7	83	62.3	43.9	13.6	54.9	92.2	97.3	114	114	115	88.7	96.2	59.1	45.9	39.2
OCc1ccc(-c2nn(Cc3ccccc3)c3ccccc23)o1	115	128	124	111	113	113	117	38.1	96.1	44.6	19.3	116	110	126	100	119	107	98.1	18.2	80.9	37.4	11.2	–	–	–	–	–	–	–	–	–	–	–
O=C(/C=C/c1c(C(=O)[O-])[nH]c2cc(Cl)cc(Cl)c12)Nc1ccccc1	89.9	120	122	122	127	114	123	132	124	115	73.1	110	113	106	102	118	112	121	122	129	118	65.1	95.9	103	110	119	104	125	101	121	128	118	60
